In patent US20170107179A1 (Tetraphase Pharmaceuticals, Inc., priority 2010, published 2017):
Values after ≈ are worked out from the molar mass of the structure shown. Like-named read-outs stand apart in the source and are kept apart here.

Experiments:
[1] = test system: evaluated pathogens by tetracycline phenotype; test: Broth microdilution MIC by tetracycline phenotype (Table 14)
E. coli DH10B EC969 TetM = test: MIC, E. coli DH10B recombinantly expressing tetracycline-resistance gene; details: arabinose-induced, ampicillin in medium
E. coli DH10B EC970 TetK = test: as above; details: arabinose-induced, ampicillin in medium
Gram-positive pathogens = test: Broth microdilution MIC, respiratory/skin pathogens (Table 12)
[2] = test system: Gram-negative and Gram-positive organisms (clinical isolates); test: Broth microdilution MIC against clinical isolates (CLSI M7-A8), Table 9; type: cell-based
[3] = Non-GLP monkey pharmacokinetics; type: in vivo; details: cynomolgus monkeys; for half-life: read-out: T½ (converted)
Method: As a result of promising pharmacokinetic data in Sprague Dawley rats,^a Compound 102 was evaluated in 3 non-naîve cynomolgus monkeys. […] Nine to ten plasma samples were drawn for each dosing route up to 24 hours into heparin-coated vacutainer tubes. Dose formulations were verified with a 5-point calibration curve. The plasma concentration of the compound was quantified by LC/MS/MS using an internal standard. Quality control (QC) samples (low, medium, high; minimum of 6 standards with LLOQ<3 ng/mL) and standard curves (in duplicate) were included in the bioanalytical run. WinNonLin was used to determine individual and mean PK parameters±standard deviation (F, Cmax, Tmax, T½, CL, Vss, AUC(0-t), AUC(0-∞), and MRT).

[4] = test system: subset of Gram-negative and Gram-positive isolates; test: Minimum bactericidal concentration (MBC), CLSI M26-A, selected strains (Table 11)
[5] = Enterococcus faecium, E. faecium, TET NS, N=40
[6] = Enterococcus faecium, E. faecium, TET S, N=60
[7] = Streptococcus agalactiae, S. agalactiae, TET NS, N=39
[8] = Streptococcus agalactiae, S. agalactiae, TET S, N=11
[9] = Streptococcus pneumoniae, S. pneumoniae, TET NS, N=46
[10] = Streptococcus pneumoniae, S. pneumoniae, TET S, N=54
[11] = Streptococcus pyogenes, S. pyogenes, TET S, N=44
[12] = cynomolgus monkey, plasma, IV 1 mg/kg, average of 3
[13] = cynomolgus monkey, plasma, PO 10 mg/kg, average of 3

## CN(C)[C@@H]1C(O)=C(C(N)=O)C(=O)[C@@]2(O)C(O)=C3C(=O)c4c(O)c5c(c(F)c4C[C@H]3C[C@@H]12)CN(C(C)(C)C)C5 [Compound 102]
[1]
  MICs, fold higher against tetracycline resistant isolates relative to tetracycline susceptible isolates: 2-4 fold
[1]; [5]
  MIC50: 0.25 µg/mL (≈ 0.472 µM)
  MIC90: 0.5 µg/mL (≈ 0.944 µM)
[1]; [6]
  MIC50: 0.12 µg/mL (≈ 0.227 µM)
  MIC90: 0.12 µg/mL (≈ 0.227 µM)
[1]; F. faecalis, TET NS, N=71
  MIC50: 0.5 µg/mL (≈ 0.944 µM)
  MIC90: 1 µg/mL (≈ 1.89 µM)
[1]; F. faecalis, TET S, N=30
  MIC50: 0.12 µg/mL (≈ 0.227 µM)
  MIC90: 0.25 µg/mL (≈ 0.472 µM)
[1]; [7]
  MIC50: 0.5 µg/mL (≈ 0.944 µM)
  MIC90: 0.5 µg/mL (≈ 0.944 µM)
[1]; [8]
  MIC50: 0.12 µg/mL (≈ 0.227 µM)
  MIC90: 0.12 µg/mL (≈ 0.227 µM)
[1]; [9]
  MIC50: 0.12 µg/mL (≈ 0.227 µM)
  MIC90: 0.12 µg/mL (≈ 0.227 µM)
[1]; [10]
  MIC50: 0.06 µg/mL (≈ 0.113 µM)
  MIC90: 0.12 µg/mL (≈ 0.227 µM)
[1]; Streptococcus pyogenes, S. pyogenes, TET NS, N=6
  MIC50: 0.25 µg/mL (≈ 0.472 µM)
[1]; [11]
  MIC50: 0.12 µg/mL (≈ 0.227 µM)
  MIC90: 0.12 µg/mL (≈ 0.227 µM)
E. coli DH10B EC969 TetM
  MIC EC969 TetM: 1
E. coli DH10B EC970 TetK
  MIC EC970 TetK: 0.5
Gram-positive pathogens; Gram-positive aerobic pathogens, generally
  MICs, fold higher than those of tigecycline: 2-4 fold
Gram-positive pathogens; pneumococci and beta-hemolytic streptococci
  MICs relative to tetracycline: several-fold lower than those of tetracycline
Gram-positive pathogens; staphylococci
  MICs relative to tetracycline: comparable to those of tetracycline
[2]
  MICs against tetracycline resistant isolates relative to tetracycline susceptible isolates: not notably altered
  MICs relative to tetracycline: comparable MICs relative to tetracycline
  potency against tetracycline resistant isolates: maintained potency
  potency by MIC50/MIC90, Gram-positive relative to Gram-negative pathogens: more potent by MIC50/MIC90 against Gram-positive pathogens relative to Gram-negative pathogens
  potency relative to tetracycline: more potent
[2]; Acinetobacter lwoffii, n=29, read-out: MIC50
  MIC50: 0.12 µg/mL (≈ 0.227 µM)
[2]; Acinetobacter lwoffii, n=29, read-out: MIC90
  MIC90: 0.5 µg/mL (≈ 0.944 µM)
[2]; Acinetobacter lwoffli, S. maltophila, and streptococci
  MICs, fold lower than tetracycline: 2-4 fold
[2]; Enterobacter cloacae, n=29, read-out: MIC50
  MIC50: 4 µg/mL (≈ 7.55 µM)
[2]; Enterobacter cloacae, n=29, read-out: MIC90
  MIC90: 8 µg/mL (≈ 15.1 µM)
[2]; Escherichia coli, n=40, read-out: MIC50
  MIC50: 2 µg/mL (≈ 3.78 µM)
[2]; Escherichia coli, n=40, read-out: MIC90
  MIC90: 4 µg/mL (≈ 7.55 µM)
[2]; Kiebsielia oxytoca, n=30, read-out: MIC50
  MIC50: 1 µg/mL (≈ 1.89 µM)
[2]; Kiebsielia oxytoca, n=30, read-out: MIC90
  MIC90: 4 µg/mL (≈ 7.55 µM)
[2]; Klebsiella aerogenes, Enterobacter aerogenes, n=30, read-out: MIC50
  MIC50: 2 µg/mL (≈ 3.78 µM)
[2]; Klebsiella aerogenes, Enterobacter aerogenes, n=30, read-out: MIC90
  MIC90: 2 µg/mL (≈ 3.78 µM)
[2]; Klebsiella pneumoniae, Klebsiella pneumonia, n=27, read-out: MIC50
  MIC50: 4 µg/mL (≈ 7.55 µM)
[2]; Klebsiella pneumoniae, Klebsiella pneumonia, n=27, read-out: MIC90
  MIC90: 16 µg/mL (≈ 30.2 µM)
[2]; Morganella morganii, n=30, read-out: MIC50
  MIC50: 8 µg/mL (≈ 15.1 µM)
[2]; Morganella morganii, n=30, read-out: MIC90
  MIC90: 16 µg/mL (≈ 30.2 µM)
[2]; Proteus vulgaris, n=29, read-out: MIC50
  MIC50: 8 µg/mL (≈ 15.1 µM)
[2]; Proteus vulgaris, n=29, read-out: MIC90
  MIC90: > 16 µg/mL
[2]; Salmonella species, n=30
  MIC50: 2 µg/mL (≈ 3.78 µM)
  MIC90: 2 µg/mL (≈ 3.78 µM)
[2]; Serratia marcescens, n=30, read-out: MIC50
  MIC50: 4 µg/mL (≈ 7.55 µM)
[2]; Serratia marcescens, n=30, read-out: MIC90
  MIC90: 8 µg/mL (≈ 15.1 µM)
[2]; Shigella species, n=30, read-out: MIC50
  MIC50: 0.5 µg/mL (≈ 0.944 µM)
[2]; Staphylococcus aureus, Staphylococcus aureus (MRSA PVL+), n=30, read-out: MIC50
  MIC50: 0.25 µg/mL (≈ 0.472 µM)
[2]; Staphylococcus aureus, Staphylococcus aureus (MRSA PVL+), n=30, read-out: MIC90
  MIC90: 0.25 µg/mL (≈ 0.472 µM)
[2]; Staphylococcus aureus, Staphylococcus aureus MRSA (includes MRSA PVL+ group), n=105, read-out: MIC50
  MIC50: 0.5 µg/mL (≈ 0.944 µM)
[2]; Staphylococcus aureus, Staphylococcus aureus MRSA (includes MRSA PVL+ group), n=105, read-out: MIC90
  MIC90: 2 µg/mL (≈ 3.78 µM)
[2]; Stenotrophomonas maltophilia, n=29, read-out: MIC50
  MIC50: 0.5 µg/mL (≈ 0.944 µM)
[2]; Stenotrophomonas maltophilia, n=29, read-out: MIC90
  MIC90: 2 µg/mL (≈ 3.78 µM)
[2]; Streptococcus anginosus, n=20, read-out: MIC50
  MIC50: 0.06 µg/mL (≈ 0.113 µM)
[2]; Streptococcus anginosus, n=20, read-out: MIC90
  MIC90: 0.25 µg/mL (≈ 0.472 µM)
[2]; Streptococcus intermedius, n=30, read-out: MIC50
  MIC50: 0.12 µg/mL (≈ 0.227 µM)
[2]; Streptococcus intermedius, n=30, read-out: MIC90
  MIC90: 0.12 µg/mL (≈ 0.227 µM)
[2]; Streptococcus mitis, n=29, read-out: MIC50
  MIC50: 0.12 µg/mL (≈ 0.227 µM)
[2]; Streptococcus mitis, n=29, read-out: MIC90
  MIC90: 0.25 µg/mL (≈ 0.472 µM)
[2]; Streptococcus sanguis, n=18, read-out: MIC50
  MIC50: 0.06 µg/mL (≈ 0.113 µM)
[2]; Streptococcus sanguis, n=18, read-out: MIC90
  MIC90: 0.12 µg/mL (≈ 0.227 µM)
[2]; evaluated Gram-negative and Gram-positive pathogens, generally
  MICs, fold higher than those of tigecycline: 2-4 fold
[3]; [12]
  AUC(0-inf): 9310 ng·h/mL
  AUC(0-t): 4850 ng·h/mL
  clearance: 1.86 mL/min/kg
  half-life: 23.3 h
[3]; cynomolgus monkey, plasma, IV 1 mg/kg, average of 3, read-out: Vdss
  Vd: 3.4 L/kg
[3]; cynomolgus monkey, plasma, PO 10 mg/kg vs IV 1 mg/kg
  bioavailability: 33.7%
[3]; [13]
  AUC(0-inf): 35400 ng·h/mL
  AUC(0-t): 16300 ng·h/mL
  Cmax: 1260 ng/mL
  Tmax: 4 h
  half-life: 24.8 h
[3]; IV 1 mg/kg, average of 3
  Co: 3170 ng/mL
[4]
  evaluated isolates with MBC:MIC ratio >2: 89.3%
  mode of action from MBC:MIC ratios: bacteriostatic mode of action
[4]; Acinetobacter lwoffii isolate 2919857
  MBC:MIC: 4
[4]; Acinetobacter lwoffii isolate 2919860
  MBC:MIC: 128
[4]; Acinetobacter lwoffii isolate 2919873
  MBC:MIC: 1
[4]; Acinetobacter lwoffii isolate 2919875
  MBC:MIC: 4
[4]; Enierobacter cloacae isolate 2920082
  MBC:MIC: 4
[4]; Enterobacter aerogenes isolate 2919897
  MBC:MIC: 2
[4]; Enterobacter aerogenes isolate 2919900
  MBC:MIC: 8
[4]; Enterobacter aerogenes isolate 2919909
  MBC:MIC: 4
[4]; Enterobacter aerogenes isolate 2919913
  MBC:MIC: 16
[4]; Enterobacter cloacae isolate 2920072
  MBC:MIC: 2
[4]; Enterobacter cloacae isolate 2920119
  MBC:MIC: 1
[4]; Escherichia coli isolate 2921525
  MBC:MIC: >16
[4]; Escherichia coli isolate 2921576
  MBC:MIC: 8
[4]; Klebsiella oxytoca isolate 2919956
  MBC:MIC: 8
[4]; Klebsiella oxytoca isolate 2919964
  MBC:MIC: 4
[4]; Klebsiella oxytoca isolate 2919972
  MBC:MIC: 2
[4]; Klebsiella oxytoca isolate 2919983
  MBC:MIC: 8
[4]; Klebsiella pneumonia isolate 2921528
  MBC:MIC: >8
[4]; Klebsiella pneumoniae isolate 2921529
  MBC:MIC: >8
[4]; Morganella morganii isolate 2919931
  MBC:MIC: >4
[4]; Morganella morganii isolate 2919935
  MBC:MIC: >4
[4]; Morganella morganii isolate 2919945
  MBC:MIC: >2
[4]; Proteus vulgaris isolate 2919822
  MBC:MIC: >1
[4]; Proteus vulgaris isolate 2919827
  MBC:MIC: >2
[4]; Proteus vulgaris isolate 2919835
  MBC:MIC: >4
[4]; Proteus vulgaris isolate 2919836
  MBC:MIC: 4
[4]; Salmonella species isolate 2919986
  MBC:MIC: 4
[4]; Salmonella species isolate 2919990
  MBC:MIC: 4
[4]; Salmonella species isolate 2920006
  MBC:MIC: 4
[4]; Salmonella species isolate 2920008
  MBC:MIC: 4
[4]; Serratia marcescens isolate 2920092
  MBC:MIC: 4
[4]; Serratia marcescens isolate 2920094
  MBC:MIC: >4
[4]; Serratia marcescens isolate 2920100
  MBC:MIC: 2
[4]; Serratia marcescens isolate 2920109
  MBC:MIC: 4
[4]; Shigella species isolate 2919892
  MBC:MIC: 4
[4]; Shigella species isolate 2919894
  MBC:MIC: 16
[4]; Shigella species isolate 2920018
  MBC:MIC: 2
[4]; Shigella species isolate 2920026
  MBC:MIC: 32
[4]; Shigella species isolate 2920028
  MBC:MIC: 8
[4]; Staphylococcus aureus isolate 2919648
  MBC:MIC: >16
[4]; Staphylococcus aureus isolate 2919649
  MBC:MIC: >16
[4]; Staphylococcus aureus isolate 2919650
  MBC:MIC: >16
[4]; Stenotrophomonas maltophilia isolate 2920035
  MBC:MIC: >8
[4]; Stenotrophomonas maltophilia isolate 2920051
  MBC:MIC: 8
[4]; Streptococcus anginosus isolate 2919722
  MBC:MIC: 8
[4]; Streptococcus anginosus isolate 2919742
  MBC:MIC: 16
[4]; Streptococcus anginosus isolate 2919797
  MBC:MIC: 8
[4]; Streptococcus intermedius isolate 2919756
  MBC:MIC: 16
[4]; Streptococcus intermedius isolate 2919759
  MBC:MIC: 64
[4]; Streptococcus intermedius isolate 2919784
  MBC:MIC: 16
[4]; Streptococcus intermedius isolate 2919819
  MBC:MIC: 4
[4]; Streptococcus mitis isolate 2919763
  MBC:MIC: 4
[4]; Streptococcus mitis isolate 2919781
  MBC:MIC: 1
[4]; Streptococcus mitis isolate 2919798
  MBC:MIC: 1
[4]; Streptococcus mitis isolate 2919803
  MBC:MIC: 8
[4]; Streptococcus sanguis isolate 2919749
  MBC:MIC: 4
[4]; Streptococcus sanguis isolate 2919752
  MBC:MIC: 2
[4]; Streptococcus sanguis isolate 2919758
  MBC:MIC: 16
